One data set concerns Breinlia booliati. More on the design: method as in Mak 1981 (Ref. 7). Particulars: 100L3 (SC), rats, SC 3mg/kg 5 cons. days, patent phase, necropsy 4 weeks p.t.; ref Mak 1981 (Ref. 7); cited from earlier work.
Data set [1] is described as follows: Bioavailability in dog (in-house). Particulars: in vivo, oral, in-house data at high dose of 25 mg/kg, read-out: Bioavailability (F). The text has this: Table 1 Human pharmacokinetic prediction for oxfendazole.
The conditions of data set [2]: human.

Like-named read-outs stand apart in the source and are kept apart here.

Broadly, the bioavailability is dose-corrected exposure relative to a reference, in per cent. As a reminder, the clearance is a measure of how efficiently the substance is removed, as volume per time. A lower clearance goes with inefficient removal. As a reminder, the Vd is a proportionality between amount in the body and measured concentration, not a real space. Read a high Vd as extensive tissue distribution.

As to `COC(=O)Nc1nc2cc(C(=O)c3ccc(F)cc3)ccc2[nH]1` [flubendazole], the “Reduction of worm burden” value in the data set with Breinlia booliati was 100%.

With `COC(=O)Nc1nc2ccc([S+]([O-])c3ccccc3)cc2[nH]1` (stereo not drawn) [oxfendazole], the bioavailability is ~10% in data set [1] and 30% in data set [2] (po). Also, in data set [2], the clearance was ~0.4 mL/min/kg. In addition, the Vd in data set [2] (Vol. of Distribution (Vss), Final) was ~0.5 L/kg. The CLhep predicted in data set [2] (hepatocytes) was 0.4 mL/min/kg.
